Experimental findings from US20190008983A1, “EXTRACELLULAR DRUG CONJUGATES TARGETING CD20” (priority 2015, published 2019) are described below.

Each structure is given as a SMILES string. Read-outs that look alike come from different tables or passages of the source.

Series [1] has as its system CD20 positive cell line SUDHL4. In words: Cell proliferation/cytotoxicity assay (CellTiter-Glo) on SUDHL4 cells. Format: cell-based, Human. Particulars: for EC50: read-out: EC50 in picoM, SUDHL4; for % viab., SUDHL4: figure in brackets after EC50. On the procedure:
(§1) These cell lines are the Ramos (Human Burkitt's lymphoma) and SUDHL4 (Non-Hodgkin lymphoma) cell lines. […] Cell viability was then analyzed using the CellTiter-Glo luminescent cell viability assay and standard package insert protocol of the manufacturer (Promega, Madison, Wis.).

Series [2] concerns CD20 positive cell line Ramos. Put plainly: Cell proliferation/cytotoxicity assay (CellTiter-Glo) on Ramos cells. Type of series: cell-based, Human. The conditions noted are these: for % viab., Ramos: figure in brackets after EC50; for % viab., Ramos / EC50: 72 hours incubation; for EC50: CellTiter-Glo, Tables 1-2, read-out: EC50 in picoM, Ramos. On the procedure: as §1
(ATP-based viability assays read luminescence as a measure of living cells.)

Setting [3] is: 72 hours incubation, CellTiter-Glo, Tables 1-2.

By EC50 is commonly meant the concentration at which the effect is half-maximal. Consider `C[C@]12CC[C@H](O)C[C@H]1CC[C@@H]1[C@@H]2CC[C@]2(C)[C@@H](c3ccc(=O)oc3)CC[C@]12O` [Bufalin, reference compound], for which the EC50 in series [1] (Homo sapiens, SU-DHL-4, 72 h) was found to be 16 nM.
Consider `C[C@]12CC[C@H](OC3OC[C@H](N)[C@@H](O)[C@@H]3O)C=C1CC[C@@H]1[C@@H]2CC[C@]2(C)[C@@H](c3ccc(=O)oc3)CC[C@]12O` (stereo partly shown) [CEN09-106], for which the “% viab., Ramos” value in series [2] is 0%. The “activity on Ramos cells in FIG. 8 study” value in series [2] (in the absence of complement, FIG. 8) is recorded as “significant but much less potent activity”. Besides, the “% viab., SUDHL4” value in series [1] (72 hours incubation) is 0%.
For `CC12CCC(OC(=O)N3CCNCC3)CC1CCC1C2CCC2(C)C(c3ccc(=O)oc3)CCC12O` (stereo not shown) [CEN-371], in series [2], the EC50 came out at 7.81 nM and the “% viab., Ramos” value came out at 0%. Also, the half-maximal effective concentration (EC50) in series [1] (setting [3]) was found to be 11 nM. Moreover, the “% viab., SUDHL4” value in series [1] (72 hours incubation) came to 0%.
`CN(CCCN)CCCNC(=O)O[C@H]1CC[C@@]2(C)[C@H](CC[C@@H]3[C@@H]2CC[C@]2(C)[C@H](c4ccc(=O)oc4)CC[C@]32O)C1` [CEN-372]: the EC50 was 3.6 nM in series [2] and 4.4 nM in series [1] (setting [3]).
The matching figures for `C[C@]12CC[C@H](OC(=O)NCCCNCCCN)C[C@H]1CC[C@@H]1[C@@H]2CC[C@]2(C)[C@H](c3ccc(=O)oc3)CC[C@]12O` [CEN-373]: 4 nM and 5.9 nM.
As to `C[C@]1(OC(=O)NCCCN2CCN(CCCN)CC2)CC[C@@]2(C)[C@H](CC[C@@H]3[C@@H]2CC[C@]2(C)[C@@](C)(C4=CC(=O)OC4)CC[C@]32O)C1` [CEN-381], the EC50 in series [2] and in series [1] (setting [3]) was above 50 nM throughout.
Regarding `C[C@]12CC[C@H](O)C[C@H]1CC[C@@H]1[C@@H]2CC[C@]2(C)[C@@H](C3=CC(=O)OC3)CC[C@]12O` [Digitoxigenin, reference compound], in series [1] (Homo sapiens, SU-DHL-4, 72 h), the EC50 was above 50 nM.
Turning to `C[C@]12CC[C@H](O)C=C1CC[C@@H]1[C@@H]2CC[C@]2(C)[C@@H](c3ccc(=O)oc3)CC[C@]12O` [Scillarenin, reference compound], in series [1] (Homo sapiens, SU-DHL-4, 72 hours incubation, CellTiter-Glo, Tables 1-2), the EC50 amounted to 18 nM.
